ChEMBL document CHEMBL3046869, “Investigation of myorelaxant activity of 9-aryl-3,4,6,7-tetrahydroacridine-1,8-(2H,5H,9H,10H)-diones in isolated rabbit gastric fundus” (2012)
The source made the active and inactive calls. The calls are words filed in the database; no cut-off is given here.

Experiments:
Settings in all cases: Stomach
[1] = system: Gastric fundus smooth muscle; experiment: Myorelaxant activity in noradrenaline-precontracted New Zealand Oryctolagus cuniculus (rabbit) gastric fundus smooth muscle strips in presence of large-conductance Ca2+-activated K+ channel blocker iberiotoxin; type: functional
[2] = system: Gastric fundus smooth muscle; experiment: Myorelaxant activity in noradrenaline-precontracted New Zealand Oryctolagus cuniculus (rabbit) gastric fundus smooth muscle strips in presence of small-conductance Ca2+-activated K+ channel blocker apamine; type: functional
[3] = system: Gastric fundus smooth muscle; experiment: Myorelaxant activity in noradrenaline-precontracted New Zealand Oryctolagus cuniculus (rabbit) gastric fundus smooth muscle strips in presence of K-ATP channel blocker glibenclamide; type: functional
[4] = system: Gastric fundus smooth muscle; experiment: Myorelaxant activity in noradrenaline-precontracted New Zealand Oryctolagus cuniculus (rabbit) gastric fundus smooth muscle strips in presence of Ca2+-activated K+ channel blocker TEA; type: functional
Oryctolagus cuniculus [5] = species on record: Oryctolagus cuniculus; experiment: Activation of potassium channel in noradrenaline-precontracted New Zealand Oryctolagus cuniculus (rabbit) gastric fundus smooth muscle strips assessed as muscle relaxant activity; type: tissue-based
Oryctolagus cuniculus [6] = species on record: Oryctolagus cuniculus; experiment: Activation of potassium channel in noradrenaline-precontracted New Zealand Oryctolagus cuniculus (rabbit) gastric fundus smooth muscle strips assessed as muscle relaxant activity relative to control; type: tissue-based
[7] = system: Gastric fundus smooth muscle; experiment: Myorelaxant activity in noradrenaline-precontracted New Zealand Oryctolagus cuniculus (rabbit) gastric fundus smooth muscle strips in presence of KV blocker 4-aminopyridine

Compound | Emax [1] | Emax [2] | Emax [3] | Emax [4] | pD2 (Oryctolagus cuniculus [5]) | Emax (Oryctolagus cuniculus [6]) | Emax [7]
CC1CC(=O)C2=C(C1)NC1=C(C(=O)CC(C)C1)C2c1ccc([N+](=O)[O-])cc1 (configuration not stated) | 82.5% | 54.5% | 52% | 74.4% | 4.66 | 53.9% | 51.4%
CC1CC(=O)C2=C(C1)NC1=C(C(=O)CC(C)C1)C2c1cccc([N+](=O)[O-])c1 (configuration not stated) | 54.4% | 35.3% | 51.8% | 54.6% | 4.57 | 62.1% | 54.1%
CC1CC(=O)C2=C(C1)NC1=C(C(=O)CC(C)C1)C2c1ccc(C(F)(F)F)cc1 (configuration not stated) | 43.3% | 26.7% | 43.8% | 35.1% | 4.68 | 33.8% | 14%
CC1CC(=O)C2=C(C1)NC1=C(C(=O)CC(C)C1)C2c1ccccc1F (configuration not stated) | inactive | inactive | inactive | inactive | inactive | inactive | inactive
CC1CC(=O)C2=C(C1)NC1=C(C(=O)CC(C)C1)C2c1cccc(C#N)c1 (configuration not stated) | 30.9% | 60.6% | 66% | 44.6% | 4.7 | 56% | 32.3%
CC1CC(=O)C2=C(C1)NC1=C(C(=O)CC(C)C1)C2c1ccccc1C(F)(F)F (configuration not stated) | inactive | inactive | inactive | inactive | inactive | inactive | inactive
CC1CC(=O)C2=C(C1)NC1=C(C(=O)CC(C)C1)C2c1ccc(C#N)cc1 (configuration not stated) | 52% | 45.7% | 45.2% | 45.2% | 4.57 | 46% | 51.1%
CC1CC(=O)C2=C(C1)NC1=C(C(=O)CC(C)C1)C2c1ccc(F)cc1 (configuration not stated) | 39.1% | 39.3% | 46.7% | 18.8% | 4.6 | 37.2% | 21.8%
CC1CC(=O)C2=C(C1)NC1=C(C(=O)CC(C)C1)C2c1ccccc1[N+](=O)[O-] (configuration not stated) | inactive | inactive | inactive | inactive | inactive | inactive | inactive
CC(N/C(=N\C#N)Nc1ccncc1)C(C)(C)C (configuration not stated) | – | – | – | – | 4.9 | 73.5% | –
CC1CC(=O)C2=C(C1)NC1=C(C(=O)CC(C)C1)C2c1cccc(C(F)(F)F)c1 (configuration not stated) | inactive | inactive | inactive | inactive | inactive | inactive | inactive
